“And” between values parts separate entries of the source, which are not always exact repeats. Equal entries are not always repeated.
How the values were obtained:
PfCRT^Dd2_F145I = target: T1, PfCRT^Dd2_F145I (Plasmodium falciparum, UniProt Q8IBZ9, A220S/F145I/I356T/K76T/M74I/N326S/N75E/Q271E/R371I); test: Radiolabeled drug uptake in X. laevis oocytes expressing PfCRT^Dd2_F145I; type: cell-based
T1 construct: expressed in transfected cells; host or cells: Xenopus laevis oocytes injected with in vitro transcribed RNA (pSP64T)
T1 sequence (Q8IBZ9 1-424 M74I/N75E/K76T/F145I/A220S/Q271E/N326S/I356T/R371I): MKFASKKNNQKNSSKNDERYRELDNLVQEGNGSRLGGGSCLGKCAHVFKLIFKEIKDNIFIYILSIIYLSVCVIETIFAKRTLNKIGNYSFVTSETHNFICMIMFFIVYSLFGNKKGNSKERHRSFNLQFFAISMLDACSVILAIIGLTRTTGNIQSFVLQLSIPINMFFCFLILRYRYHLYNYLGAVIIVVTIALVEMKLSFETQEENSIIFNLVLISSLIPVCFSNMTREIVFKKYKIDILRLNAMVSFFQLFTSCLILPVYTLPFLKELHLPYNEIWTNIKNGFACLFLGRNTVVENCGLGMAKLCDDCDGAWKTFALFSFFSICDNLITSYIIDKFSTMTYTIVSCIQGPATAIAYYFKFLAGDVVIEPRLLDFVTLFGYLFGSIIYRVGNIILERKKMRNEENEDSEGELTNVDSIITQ
Excerpt: The two kinetic parameters were derived by fitting the Michaelis-Menten equation to the kinetic data (Table 1).
A codon-optimized coding sequence of the Dd2 isoform of PfCRT (PfCRT^Dd2) was subcloned into the pSP64T expression vector [21]. To generate the necessary mutations to introduce the amino acid substitutions H97Y, F145I, M343L or G353V into the pfcrt sequence, the overlap extension method was used. A region from the 5’-untranslated Xenopus β-globin sequence to the respective 3’ region, containing the full length pfcrt coding sequence, was amplified using the following primer pairs: for the H97Y mutation, numbers 1/4 and 2/3; for the F145I mutation, numbers 1/6 and 2/5; for the M343L mutation, numbers 1/8 and 2/7; and for the G353V mutation, numbers 1/10 and 2/9 (for primers, see S2 Table). Both PCR products were used as template for amplification of the final product using primers number 1/2. The resulting fragment was cloned into the pSP64T expression vector, and the presence of the desired mutation was confirmed by sequencing.
(§1) Adult female X. laevis frogs (purchased from NASCO) were anesthetized by submersion in a solution of 0.3% (w/v) 3-amino benzoate methanesulfonate for 15 min. Sections of the ovary were surgically removed and placed in Ca^2+-free ND96 buffer supplemented with 0.1% collagenase D (w/v; Roche), 0.5% BSA (w/v) and 9 mM Na2HPO4 at 18°C for 14–16 h while gently shaking. The oocytes were then washed several times with ND96 buffer (5 mM HEPES, pH 7.5, 96 mM NaCl, 2 mM KCl, 1.8 mM CaCl2, 1 mM MgCl2), supplemented with […] gentamycin. Healthy-looking stage V-VI oocytes were manually selected and randomly grouped for injection. A codon-optimized coding sequence of PfCRT was subcloned into the pSP64T expression vector and subsequently linearized using the restriction endonuclease BamHI or SalI (New England Biolabs GmbH). RNA for injection was transcribed in vitro using the mMESSAGE mMACHINE SP6 Transcription kit (Ambion), diluted with nuclease-free water to a final concentration of 0.6 μg/μL and stored at -80°C. RNA was injected using precision-bore glass capillary tubes (3.5-inch glass capillaries; Drummond Scientific Co.), which were pulled on a vertical puller (P-87 Flaming/Brown micropipette puller, Sutter Instrument Co.) and graduated. The micropipettes were connected to a microinjector (Nanoject II Auto-Nanoliter Injector, Drummond Scientific Co.). Injection was conducted under stereomicroscopic control. 50 nL of nuclease-free water alone (control oocytes) or 50 nL of nuclease-free water containing 30 ng of RNA was injected per oocyte. Injected oocytes were kept for 72 h at 18°C in ND96 buffer with two daily buffer changes before being used for further experiments.
(§2) Drug transport assays were performed as previously described. Briefly, measurements of radiolabeled drug uptake were made over 1 h, unless otherwise specified. […] Where specified, one or more unlabeled drugs were also present at the indicated concentrations. […] The uptake assays were terminated by removing the oocytes from the reaction medium and washing them three times with 2 mL of ice-cold ND96 buffer. Each oocyte was transferred to a separate scintillation vial and lysed by the addition of 200 μL of a 5% SDS solution. The radioactivity in the sample was measured using a liquid scintillation analyser Tri-Carb 4910 TR (PerkinElmer). Water-injected oocytes were analyzed in parallel as a negative control. The buffer from each condition was measured in duplicate in parallel to each experiment to transform counts per minute into pmol of drug. Drug uptake attributable to PfCRT was determined by subtracting the background uptake from water-injected oocytes from that of PfCRT-expressing oocytes.

water-injected oocytes = test: Radiolabeled drug uptake in water-injected control oocytes (intrinsic drug accumulation); type: cell-based, Xenopus laevis; conditions: 50 μM PPQ, pH 6.0; one value per biological replicate
Experimental: as §1
as §2, with “oocytes. In all cases, at least three independent experiments were performed on oocytes from different frogs, and for each condition in an experiment, measurements were made from 10 oocytes per treatment.” for “oocytes.”

[1] = 50 μM PPQ, pH 6.0, total uptake, one value per biological replicate
[2] = 50 μM PPQ, pH 6.0, water-injected uptake subtracted, per replicate
[3] = 60 min, pH 6, per biological replicate

Clc1ccc2c(N3CCN(CCCN4CCN(c5ccnc6cc(Cl)ccc56)CC4)CC3)ccnc2c1 [PPQ, piperaquine]
PfCRTDd2_F145I-mediated PPQ uptake at 10 µM PPQ (PfCRT^Dd2_F145I; 10 µM PPQ, single replicates): 11.21 pmol oocyte-1 h-1 and 11.88 pmol oocyte-1 h-1 and 9.04 pmol oocyte-1 h-1 | PfCRTDd2_F145I PPQ uptake at 10 min (PfCRT^Dd2_F145I; [1]): 41.61 pmol oocyte-1 and 17.68 pmol oocyte-1 and 66.82 pmol oocyte-1 and 63.70 pmol oocyte-1 and 39.93 pmol oocyte-1 | PfCRTDd2_F145I PPQ uptake at 30 min (PfCRT^Dd2_F145I; [1]): 65.21 pmol oocyte-1 and 116.16 pmol oocyte-1 and 126.02 pmol oocyte-1 | PfCRTDd2_F145I PPQ uptake at 60 min (PfCRT^Dd2_F145I; [1]): 236.23 pmol oocyte-1 and 329.69 pmol oocyte-1 and 256.17 pmol oocyte-1 and 126.53 pmol oocyte-1 and 203.02 pmol oocyte-1 and 85.96 pmol oocyte-1 and 54.49 pmol oocyte-1 and 109.72 pmol oocyte-1 and 205.44 pmol oocyte-1 and 121.75 pmol oocyte-1 and 41.63 pmol oocyte-1 | PfCRTDd2_F145I PPQ uptake at 90 min (PfCRT^Dd2_F145I; [1]): 231.09 pmol oocyte-1 and 187.07 pmol oocyte-1 and 164.98 pmol oocyte-1 and 158.85 pmol oocyte-1 | PfCRTDd2_F145I PPQ uptake at 120 min (PfCRT^Dd2_F145I; [1]): 355.30 pmol oocyte-1 and 204.11 pmol oocyte-1 and 281.88 pmol oocyte-1 and 284.17 pmol oocyte-1 and 64.48 pmol oocyte-1 and 488.71 pmol oocyte-1 | PfCRTDd2_F145I PPQ uptake at 180 min (PfCRT^Dd2_F145I; [1]): 182.19 pmol oocyte-1 and 278.77 pmol oocyte-1 and 329.69 pmol oocyte-1 and 378.75 pmol oocyte-1 | PfCRTDd2_F145I-mediated PPQ uptake at 10 min (PfCRT^Dd2_F145I; [2]): 21.57 pmol oocyte-1 and 6.53 pmol oocyte-1 and 19.62 pmol oocyte-1 and 21.70 pmol oocyte-1 and 15.89 pmol oocyte-1 | PfCRTDd2_F145I-mediated PPQ uptake at 30 min (PfCRT^Dd2_F145I; [2]): 25.28 pmol oocyte-1 and 34.52 pmol oocyte-1 and 15.41 pmol oocyte-1 | PfCRTDd2_F145I-mediated PPQ uptake at 60 min (PfCRT^Dd2_F145I; [2]): 39.58 pmol oocyte-1 and 153.01 pmol oocyte-1 and 36.72 pmol oocyte-1 and 18.65 pmol oocyte-1 and 19.44 pmol oocyte-1 and 16.68 pmol oocyte-1 and 27.82 pmol oocyte-1 and 75.44 pmol oocyte-1 and 27.59 pmol oocyte-1 and 15.54 pmol oocyte-1 and 75.68 pmol oocyte-1 | PfCRTDd2_F145I-mediated PPQ uptake at 90 min (PfCRT^Dd2_F145I; [2]): 89.48 pmol oocyte-1 and 78.18 pmol oocyte-1 and 49.49 pmol oocyte-1 and 48.14 pmol oocyte-1 | PfCRTDd2_F145I-mediated PPQ uptake at 120 min (PfCRT^Dd2_F145I; [2]): 115.65 pmol oocyte-1 and 103.98 pmol oocyte-1 and 53.31 pmol oocyte-1 and 32.06 pmol oocyte-1 and 52.11 pmol oocyte-1 and 114.20 pmol oocyte-1 | PfCRTDd2_F145I-mediated PPQ uptake at 180 min (PfCRT^Dd2_F145I; [2]): 46.86 pmol oocyte-1 and 115.74 pmol oocyte-1 and 109.59 pmol oocyte-1 and 113.43 pmol oocyte-1 | PfCRTDd2_F145I-mediated PPQ uptake at 50 µM PPQ (PfCRT^Dd2_F145I; 50 µM PPQ, single replicates): 27.82 pmol oocyte-1 h-1 and 75.44 pmol oocyte-1 h-1 and 27.59 pmol oocyte-1 h-1 and 75.68 pmol oocyte-1 h-1 and 39.58 pmol oocyte-1 h-1 and 36.72 pmol oocyte-1 h-1 and 42.92 pmol oocyte-1 h-1 | PfCRTDd2_F145I-mediated PPQ uptake at 100 µM PPQ (PfCRT^Dd2_F145I; 100 µM PPQ, single replicates): 60.49 pmol oocyte-1 h-1 and 74.22 pmol oocyte-1 h-1 and 87.33 pmol oocyte-1 h-1 and 56.31 pmol oocyte-1 h-1 | PfCRTDd2_F145I-mediated PPQ uptake at 200 µM PPQ (PfCRT^Dd2_F145I; 200 µM PPQ, single replicates): 98.82 pmol oocyte-1 h-1 and 131.61 pmol oocyte-1 h-1 and 62.02 pmol oocyte-1 h-1 and 88.46 pmol oocyte-1 h-1 | PfCRTDd2_F145I-mediated PPQ uptake at 300 µM PPQ (PfCRT^Dd2_F145I; 300 µM PPQ, single replicates): 115.45 pmol oocyte-1 h-1 and 117.23 pmol oocyte-1 h-1 and 91.14 pmol oocyte-1 h-1 | PfCRTDd2_F145I-mediated PPQ uptake at 400 µM PPQ (PfCRT^Dd2_F145I; 400 µM PPQ, single replicates): 130.32 pmol oocyte-1 h-1 and 101.99 pmol oocyte-1 h-1 and 105.11 pmol oocyte-1 h-1 | PfCRTDd2_F145I-mediated PPQ uptake at 500 µM PPQ (PfCRT^Dd2_F145I; 500 µM PPQ, single replicates): 124.15 pmol oocyte-1 h-1 and 149.83 pmol oocyte-1 h-1 and 96.18 pmol oocyte-1 h-1 | PfCRTDd2_F145I-mediated PPQ uptake at 10 µM PPQ (PfCRT^Dd2_F145I; [3]): 11.21 pmol oocyte-1 h-1 and 11.88 pmol oocyte-1 h-1 and 9.04 pmol oocyte-1 h-1 | PfCRTDd2_F145I-mediated PPQ uptake at 50 µM PPQ (PfCRT^Dd2_F145I; [3]): 39.58 pmol oocyte-1 h-1 and 36.72 pmol oocyte-1 h-1 and 42.92 pmol oocyte-1 h-1 and 27.82 pmol oocyte-1 h-1 and 75.44 pmol oocyte-1 h-1 and 27.59 pmol oocyte-1 h-1 and 75.68 pmol oocyte-1 h-1 | PfCRTDd2_F145I-mediated PPQ uptake at 100 µM PPQ (PfCRT^Dd2_F145I; [3]): 60.49 pmol oocyte-1 h-1 and 74.22 pmol oocyte-1 h-1 and 87.33 pmol oocyte-1 h-1 and 56.31 pmol oocyte-1 h-1 | PfCRTDd2_F145I-mediated PPQ uptake at 200 µM PPQ (PfCRT^Dd2_F145I; [3]): 98.82 pmol oocyte-1 h-1 and 131.61 pmol oocyte-1 h-1 and 62.02 pmol oocyte-1 h-1 and 88.46 pmol oocyte-1 h-1 | PfCRTDd2_F145I-mediated PPQ uptake at 300 µM PPQ (PfCRT^Dd2_F145I; [3]): 115.45 pmol oocyte-1 h-1 and 117.23 pmol oocyte-1 h-1 and 91.14 pmol oocyte-1 h-1 | PfCRTDd2_F145I-mediated PPQ uptake at 400 µM PPQ (PfCRT^Dd2_F145I; [3]): 130.32 pmol oocyte-1 h-1 and 101.99 pmol oocyte-1 h-1 and 105.11 pmol oocyte-1 h-1 | PfCRTDd2_F145I-mediated PPQ uptake at 500 µM PPQ (PfCRT^Dd2_F145I; [3]): 124.15 pmol oocyte-1 h-1 and 149.83 pmol oocyte-1 h-1 and 96.18 pmol oocyte-1 h-1 | Km (PfCRT^Dd2_F145I; Michaelis-Menten fit, 10-500 μM drug, 60 min, pH 6, read-out: KM, Michaelis constant): 115 ± 7 µM | increase of Vmax by the F145I substitution (PfCRT^Dd2_F145I; versus PfCRT^Dd2): 14% | water-injected PPQ uptake at 10 min (water-injected oocytes): 41.08 pmol oocyte-1 and 24.73 pmol oocyte-1 and 20.03 pmol oocyte-1 and 11.15 pmol oocyte-1 and 47.19 pmol oocyte-1 and 42.00 pmol oocyte-1 and 43.00 pmol oocyte-1 and 24.03 pmol oocyte-1 and 24.68 pmol oocyte-1 | water-injected PPQ uptake at 30 min (water-injected oocytes): 39.93 pmol oocyte-1 and 81.64 pmol oocyte-1 and 110.61 pmol oocyte-1 and 36.25 pmol oocyte-1 and 63.03 pmol oocyte-1 and 70.49 pmol oocyte-1 and 61.47 pmol oocyte-1 | water-injected PPQ uptake at 60 min (water-injected oocytes): 160.55 pmol oocyte-1 and 290.10 pmol oocyte-1 and 103.17 pmol oocyte-1 and 89.81 pmol oocyte-1 and 146.11 pmol oocyte-1 and 119.20 pmol oocyte-1 and 106.15 pmol oocyte-1 and 92.97 pmol oocyte-1 and 66.51 pmol oocyte-1 and 37.81 pmol oocyte-1 and 81.90 pmol oocyte-1 and 130.00 pmol oocyte-1 and 94.16 pmol oocyte-1 and 115.25 pmol oocyte-1 and 26.09 pmol oocyte-1 | water-injected PPQ uptake at 90 min (water-injected oocytes): 141.60 pmol oocyte-1 and 108.94 pmol oocyte-1 and 115.49 pmol oocyte-1 and 110.70 pmol oocyte-1 and 135.43 pmol oocyte-1 and 121.15 pmol oocyte-1 and 104.62 pmol oocyte-1 | water-injected PPQ uptake at 120 min (water-injected oocytes): 303.20 pmol oocyte-1 and 211.45 pmol oocyte-1 and 192.46 pmol oocyte-1 and 188.86 pmol oocyte-1 and 88.47 pmol oocyte-1 and 177.90 pmol oocyte-1 and 230.86 pmol oocyte-1 and 32.42 pmol oocyte-1 and 62.20 pmol oocyte-1 and 374.51 pmol oocyte-1 and 406.68 pmol oocyte-1 | water-injected PPQ uptake at 180 min (water-injected oocytes): 179.29 pmol oocyte-1 and 189.51 pmol oocyte-1 and 135.33 pmol oocyte-1 and 198.05 pmol oocyte-1 and 192.50 pmol oocyte-1 and 163.03 pmol oocyte-1 and 220.09 pmol oocyte-1 and 265.31 pmol oocyte-1 and 192.47 pmol oocyte-1
